Results as given in patent publication US5830504A, “Cooperative combinations of ligands contained within a matrix” (La Jolla Cancer Research Foundation, priority 1995, dated 1998).

Tests used:
Type in all cases: cell-based
[1] = test system: Rat-1 cells; experiment: DNA synthesis ([3H]-thymidine incorporation) in EGF-stimulated Rat-1 cells on vitronectin or collagen; conditions: 40 ng/ml EGF, 20 μg/ml coating, FIG. 6
Procedure: (§1) Rat-1 cells were plated at 1×10^5 cells/well on 24-well plates that had been coated for 12 hours either with 20 μg/ml of vitronectin or 20 μg/ml of type I collagen. Cells were incubated for 36 hours in Dulbecco's modified Eagle's medium containing 0.1% bovine serum albumin followed by addition of buffer or 40 ng/ml EGF (Boehringer Mannheim). After 15 hours, the cells were pulse-labeled with 1 μCi/ml [^3 H]-thymidine (specific activity 6.7 Ci/mmol, DuPont NEN) for 3 hours and thymidine incorporation into DNA was determined by liquid scintillation counting.
After being serum-starved, the cells were treated with buffer only (samples 1 and 2) or with EGF (samples 3 and 4). Data points are the average of triplicate samples.

[2] = test system: FG-B human pancreatic carcinoma cells (αv β3 integrin positive); experiment: DNA synthesis ([3H]-thymidine incorporation into DNA) in insulin-stimulated FG-B cells on vitronectin or type I collagen; conditions: 100 mM insulin, plates coated with 10 μg/ml vitronectin or type I collagen, FIG. 4 columns 9, 10
Procedure: (§2) FG-B (columns 1, 2, 5, 6, 9, and 10) and FG-C cells (columns 3, 4, 7, 8, 11, and 12) were plated at 1×10^5 cells/well on 24-well plates that had been coated either with vitronectin (dark column) or type I collagen (open column) . Plates were coated with 10 μg/ml of either vitronectin or type I collagen for 12 hours followed by blocking with 0.5% bovine serum albumin For 2 hours. Cells were incubated for 36 hours in DMEM containing 10% FCS (columns 1 to 4), or in DMEM containing 0.1% BSA followed by addition of buffer (columns 5 to 8) or 100 mM insulin (columns 9 to 12). FCS is used as a control because it provides maximal stimulation owing to the presence of high levels of growth factors and adhesion proteins.
(§3) After 15 hours, the cells were pulse-labeled with 1 μCi/ml [^3 H]-thymidine (specific activity 6.7 Ci/mmol, DuPont NEN) for 3 hours and thymidine incorporation into DNA was determined by trichloroacetic acid precipitation and liquid scintillation counting. Error bars indicate the standard error of triplicate determinations.

[3] = test system: FG-C human pancreatic carcinoma cells (αv β3 integrin negative); experiment: DNA synthesis ([3H]-thymidine incorporation into DNA) in insulin-stimulated FG-C cells on vitronectin or type I collagen; conditions: FG-C cells lacking αv β3; 100 mM insulin; FIG. 4 columns 3, 4, 7, 8, 11, 12
Procedure: as §2, §3

[4] = test system: αv β3 integrin-IRS-1 association in HIRcB cells; experiment: Association of IRS-1 with the vitronectin receptor after insulin stimulation (immunoprecipitation, immunoblot, densitometry); conditions: insulin-stimulated HIRcB cells; 100 nM insulin; compared with IRS-1 from total cell lysate
Procedure: HIRcB cells were grown to 80% confluency in Dulbeccos's modified Eagle's medium (DMEM) containing 10% fetal calf serum (FCS) and 500 nM methotrexate, incubated in DMEM+0.1% BSA for 36 hours, and either left quiescent, or stimulated with 100 nM insulin (Sigma) for 3 minutes. Cell monolayers were rinsed with PBS, frozen with liquid nitrogen and lysed in NP-40 lysis buffer (20 mM Tris-HCl (pH 8.0), 1% NP-40, 10% glycerol, 137 mM NaCl, 1 mM CaCl2, 1 mM MgCl2, 1 mM sodium orthovanadate, 50 mM sodium fluoride, 1 mM phenylmethylsulfonylfluoride, 0.1 U/ml aprotinin, 10 μg/ml pepstatin A). HIRcB cells were immunoprecipitated with anti-αv β3 237 according to Suzuki et al., PNAS USA 83:8614 (1986), as shown in lanes 1 and 3, 237 preimmune serum in lane 2, anti-αv β3 1343 in lane 4, anti-αIIb β3 in lane 5, anti-α5 β1 488 in lane 6 (made according to Argraves et al., J. Cell Biol. 105:1183 (1987)) and an unrelated rabbit antiserum (lane 7). Anti-αv β3 1343 was obtained from a person (Telios Pharmaceuticals, Inc.) and anti-αIIb β3 from Dr. Elisabetta Dejana (Mario Negri Institute, Milan, Italy). Three anti-α5 β1 antibodies and six unrelated polyclonal antibodies tested gave results similar to those shown in lanes 6 and 7. […] In lane 8, anti-αv β3 237 immunocomplexes from insulin-treated cells were dissociated and reprecipitated with the same antibody as follows. […]

[5] = test system: NRK cells; experiment: DNA synthesis in IGF-1-stimulated NRK cells on vitronectin, collagen or laminin; conditions: data not shown
[6] = test system: human foreskin fibroblasts; experiment: DNA synthesis ([3H]-thymidine incorporation) in PDGF-stimulated human foreskin fibroblasts on vitronectin or collagen; conditions: 40 ng/ml PDGF-BB, 20 μg/ml coating, FIG. 5 column 3 vs 4
Procedure: as §1, with “Human foreskin fibroblasts (Coriell) were” for “Rat-1 cells were”, “vitronectin of” for “vitronectin or”, “ng/ml PDGF-BB” for “ng/ml EGF”
Cells were serum-starved and treated with buffer only (samples 1 and 2) or with PDGF (samples 3 and 4). Data points are the average of duplicate samples.

Epidermal growth factor (NSDSECPLSHDGYCLHDGVCMYIEALDKYACNCVVGYIGERCQYRDLKWWELR; Epidermal growth factor; UniProt P01133 971-1023, looked up) [EGF, EGF from Boehringer Mannheim]
Response (DNA synthesis) to EGF on vitronectin versus collagen [1]: same response

insulin
DNA synthesis in response to insulin, on vitronectin relative to collagen [2]: about 2.5 fold
Difference in DNA synthesis response on vitronectin and collagen [3]: no difference
Share of IRS-1 complexed with the vitronectin receptor [4]: Five to eight

insulin-like growth factor [IGF-1]
DNA synthesis in response to IGF-1, on vitronectin relative to collagen or laminin [5]: about 2.3 fold

platelet derived growth factor [PDGF]
DNA synthesis in response to PDGF, on vitronectin relative to collagen [6]: about 2.3 fold
